Values joined by “and” are separate entries in the source; they are usually repeats but may differ in a detail not shown here. Equal values may be shown once. Marks after values point to notes of the source that are not given here.
What was measured:
D. melanogaster [1] = assay: Toxicity: survival of Drosophila larvae to emerged adults, simple and combined (H2O2) treatments; type: in vivo, Drosophila melanogaster
Procedure: Optimal fertile flies were anesthetized under CO2 narcotisation for cross selection and then placed in new vials for fertilization. After that, hybrid eggs from crossing were collected over an 8 h period and emerged larvae (72 ± 4 h later) were cleaned up for a few seconds in sterile distilled water to remove feeding medium rests. […] Bioactive compound concentrations were chosen on the basis of their known content in B. officinalis species. […] Larvae were fed on these media until pupation (about 48 h). After emergence, resulting adult flies were sacrificed under CO2 narcotisation and stored in a 70% ethanol solution in sterile water. […] The determination of Toxicity (T) of treatments in D. melanogaster was performed following this formula [39]: T = (N° of emerging individuals in treatment/N° of emerging individuals in the negative control) × 100(1) Differences in D. melanogaster survival between treatments at each concentration with respect to negative control were analyzed with a Chi-square test. This procedure was also performed for the analysis of each simple treatment with their correspondent combined treatment.

D. melanogaster [2] = assay: Genotoxicity: Somatic Mutation and Recombination Test (SMART), wing spot test, simple treatments; type: in vivo, Drosophila melanogaster; as to Diagnosis, Large Single Spots >2 Cells m = 5: key: + (positive); − (negative); as to Diagnosis, Small Single Spots 1–2 Cells m = 2: key: + (positive); − (negative); as to Diagnosis, Total Spots m = 2: key: + (positive); − (negative); as to Diagnosis, Twin Spots m = 5: key: + (positive); − (negative)
Procedure: The D. melanogaster system was selected for the determination of the safety of B. officinalis consumption as a well-recognized method to analyze vegetable complex mixtures using SMART [31, 32]. This test was used in order to evaluate the genotoxic and antigenotoxic activity of B. officinalis leaves and petioles as well as their selected bioactive compounds [33]. This activity was measured by direct visualization of the occurrence of recessive mutations in the wing hairs of two different D. melanogaster strains. Flies from experiments carried these visible wing genetic markers: the flare (flr) strain flr^3/ln (3LR) TM3, Bd^s and the multiple wing-hair (mwh) strain mwh/mwh. The marker flare (flr^3, 3_38.3) produces individual malformed hairs and the marker multiple wing hairs (mwh, 3_0.3) produces multiple hairs per cell. Larvae used in treatments come from two types of crosses: the standard cross with flr^3/TM3, Bd^S females mated to mwh/mwh males and the reciprocal cross.
Optimal fertile flies were anesthetized under CO2 narcotisation for cross selection and then placed in new vials for fertilization. After that, hybrid eggs from crossing were collected over an 8 h period and emerged larvae (72 ± 4 h later) were cleaned up for a few seconds in sterile distilled water to remove feeding medium rests. For genotoxicity analysis (simple treatments), groups of 100 larvae were transferred into vials containing 0.85 g of Drosophila Instant Medium (Formula 4–24, Carolina Biological Supply, Burlington, NC, USA) wetted with 4 mL of a mixture of distilled water and increasing concentrations of samples: B. officinalis BF and WF (1.25, 2.5, and 5 mg·mL^−1), RO (0.35, 0.7, 1.39 and 2.78 mM), SY (0.16, 0.32, 0.63 and 1.26 mM), SI (0.15, 0.29, 0.58 and 1.16 mM) and the mixture of these three bioactive compounds at each concentration assayed individually. Bioactive compound concentrations were chosen on the basis of their known content in B. officinalis species. […] Larvae were fed on these media until pupation (about 48 h). After emergence, resulting adult flies were sacrificed under CO2 narcotisation and stored in a 70% ethanol solution in sterile water. Emerged adults were counted for toxicity evaluation and transheterozygous wings (mwh flr^+/mwh^+ flr^3) were mounted on microscope slides and wing hair mutations (spots) scored, using a photonic microscope (Nikon) at 400× magnification for genotoxicity and antigenotoxicity evaluation.
For the evaluation of genotoxic effects, the frequencies of spots per fly of each treated series were compared to the concurrent negative control for each class of mutational clone as well as between simple and combined treatments for the same concentration comparisons. […] A multiple-decision procedure was used to categorize results as positive, inconclusive or negative. Inconclusive and positive results were evaluated by the non-parametric U test of Mann, Whitney and Wilcoxon. The inhibition percentage (IP) of genotoxicity was calculated from the total frequencies of spots per wing, following this formula [42]: IP = (genotoxin alone − sample + genotoxin) × 100/(genotoxin alone)(2)

HL-60 cells = assay: Cytotoxicity: HL-60 growth/viability, Trypan Blue dye exclusion; type: cell-based, human; conditions: RO (alone or in the mixture) at concentrations over 0.55 mM, 72 h
Procedure: The human acute promyelocytic leukemia cell line HL-60 was routinely grown in suspension in RPMI medium (Invitrogen, Madrid, Spain) containing glutamine ([…], Sigma-Aldrich, St. Louis, MO, USA), antibiotics (100IU penicillin mL^−1 and 100 μg streptomycin mL^−1, Sigma-Aldrich) and supplemented with 10% heat-inactivated foetal bovine serum (Linus, Cultek, Madrid, Spain) and placed in an incubator (Shel Lab, Cornelious, OR, USA) with a 5% CO2 humidified atmosphere at 37 °C [36]. HL-60 cells were subcultured every 2–3 days to maintain logarithmic growth and they were allowed to grow for 48 h before use. Cultures were plated at a density of 12.5 × 10^4 cells mL^−1 in 40 mL culture flasks (25 cm^2). Cytotoxic activity was measured as growing inhibition or decreased viability on HL-60 cells following a previous protocol modified by us. […] Cells were counted after 72 h treatment. Tested concentrations were calculated according to those used for in vivo assays to equal the range of tested doses. Untreated cultures were used as negative control. Cell viability was determined by the Trypan Blue dye exclusion test. Cells were stained with an equal volume of Trypan Blue commercial solution (Sigma-Aldrich) and counted using a hemocytometer at room temperature under a light inverted microscope (AE30/31, Motic, Barcelona, Spain). Cytotoxic effect evaluation was determined after each culture incubation period, establishing a growth curve and determining IC50 values by regression analysis of the curves. Viability estimated regressions of leukemia cells are presented as a survival percentage with respect to controls at 72 h growth and plotted as mean viability ± standard error of at least three independent replicas for each treatment and concentration.

## O=C(/C=C/c1ccc(O)c(O)c1)O[C@H](Cc1ccc(O)c(O)c1)C(=O)O [RO, rosmarinic acid]
D. melanogaster [1]; average of the four concentrations, combined with 0.12 M H2O2
  Survival average in combined treatments: 41.28
D. melanogaster [1]; combined with 0.12 M H2O2, 0.35 mM RO
  Survival: 49.56 * %
D. melanogaster [1]; combined with 0.12 M H2O2, 0.7 mM RO
  Survival: 31.11 *^,‡ %
D. melanogaster [1]; combined with 0.12 M H2O2, 1.39 mM RO
  Survival: 45.56 *^,‡ %
D. melanogaster [1]; combined with 0.12 M H2O2, 2.78 mM RO
  Survival: 38.89 *^,‡ %
D. melanogaster [1]; simple treatment, 0.35 mM RO
  Survival: 48.44 * %
D. melanogaster [1]; simple treatment, 0.7 mM RO
  Survival: 22.22 * %
D. melanogaster [1]; simple treatment, 1.39 mM RO
  Survival: 33.33 * %
D. melanogaster [1]; simple treatment, 2.78 mM RO
  Survival: 21.33% and 21.33 * %
D. melanogaster [2]; simple treatments, all concentrations
  Genotoxicity in the Drosophila wing spot test (in words): not mutagenic
D. melanogaster [2]; simple, 0.35 mM RO
  Diagnosis, Small Single Spots 1–2 Cells m = 2: −
  Diagnosis, Total Spots m = 2: −
  Mutation rate, Large Single Spots >2 Cells m = 5: 0 spots/wing
  Mutation rate, Small Single Spots 1–2 Cells m = 2: 0.38 (6) spots/wing
  Mutation rate, Total Spots m = 2: 0.38 (6) spots/wing
  Mutation rate, Twin Spots m = 5: 0 spots/wing
D. melanogaster [2]; simple, 0.7 mM RO
  Diagnosis, Small Single Spots 1–2 Cells m = 2: −
  Diagnosis, Total Spots m = 2: −
  Diagnosis, Twin Spots m = 5: −
  Mutation rate, Large Single Spots >2 Cells m = 5: 0 spots/wing
  Mutation rate, Small Single Spots 1–2 Cells m = 2: 0.21 (7) spots/wing
  Mutation rate, Total Spots m = 2: 0.26 (9) spots/wing
  Mutation rate, Twin Spots m = 5: 0.06 (2) spots/wing
D. melanogaster [2]; simple, 1.39 mM RO
  Diagnosis, Small Single Spots 1–2 Cells m = 2: −
  Diagnosis, Total Spots m = 2: −
  Diagnosis, Twin Spots m = 5: −
  Mutation rate, Large Single Spots >2 Cells m = 5: 0 spots/wing
  Mutation rate, Small Single Spots 1–2 Cells m = 2: 0.18 (4) spots/wing
  Mutation rate, Total Spots m = 2: 0.23 (5) spots/wing
  Mutation rate, Twin Spots m = 5: 0.05 (1) spots/wing
D. melanogaster [2]; simple, 2.78 mM RO
  Diagnosis, Large Single Spots >2 Cells m = 5: −
  Diagnosis, Small Single Spots 1–2 Cells m = 2: −
  Diagnosis, Total Spots m = 2: −
  Mutation rate, Large Single Spots >2 Cells m = 5: 0.05 (2) spots/wing
  Mutation rate, Small Single Spots 1–2 Cells m = 2: 0.16 (6) spots/wing
  Mutation rate, Total Spots m = 2: 0.21 (8) spots/wing
  Mutation rate, Twin Spots m = 5: 0 spots/wing
HL-60 cells
  Viable HL-60 cells: no viable cells could be detected

Reference: article PMC4728661, “Cancer Prevention and Health Benefices of Traditionally Consumed Borago officinalis Plants” (Nutrients, 2016)
